The values below come from patent publication US9040568B2, “Pharmaceutical compositions for the treatment of pain” (AbbVie Inc., priority 2009, dated 2015).

The target in assay [1] is T1, human α4β2 nicotinic acetylcholine receptor subtype expressed in HEK-293 cells (Homo sapiens, UniProt P17787+P43681).
T1 construct: expressed in transfected cells
Nature of the assay: Calcium flux assay (FLIPR) in HEK-293 cells expressing human α4β2. In kind it is cell-based. As for the experimental part:
Calcium Flux Assays Using Cells Expressing nAChR Subtypes
Human embryonic kidney (HEK) 293 cells stably expressing human α4β2 or α3β4 combinations are grown to confluency in 162 cm^2 tissue culture flasks in DMEM media supplemented with 10% FBS and 25 μg/ml zeocin and 200 μg/ml hygromycin B. IMR-32 neuroblastoma cells (ATCC) are grown to confluency in 162 cm^2 tissue culture flasks in minimum essential media supplemented with 10% FBS and 1 mM sodium pyruvate, 1% non-essential amino acids and 1% antibiotic-antimycotic. The cells are then dissociated using cell dissociation buffer and 100-150 μl per well of 3.5×10^5 cells/ml cell suspension (˜50,000-100,000 cells/well) was plated into 96-well black plates (poly-D-lysine precoated) with clear bottom and maintained for 24-48 hours in a tissue culture incubator at 37° C. under an atmosphere of 5% CO2: 95% air. Other clonal cell lines or primary cell cultures that express endogenous α4* nicotinic receptors may also be used in this assay. Calcium flux was measured using calcium-3 assay kit (Molecular Devices, Sunnyvale, Calif.) or fluo-4 (Invitrogen). A stock solution of the dye was prepared by dissolving each vial supplied by the vendor in Hank's balanced salt solution buffer (HBSS) or 150 mM NMDG, 20 mM CaCl2 containing 10 mM HEPES, The stock solution was diluted 1:20 using the same buffer before use. The growth media was removed from the cells. The cells were loaded with 100 μl of the dye per well and incubated at room temperature for up to one hour for HEK 293 clonal stable cell lines or 30 minutes-45 minutes at 37° C. for IMR-32 cells Fluorescence measurements were read simultaneously from all the wells by a Fluorometic Imaging Plate Reader (FLIPR) at an excitation wavelength of 480 nm and an emission wavelength of 520 nm. Baseline fluorescence was measured for the first 6 seconds at which 3× concentrations of modulator/test compounds were added to the cell plate at 50 μl and incubated for five minutes. The fluorescence intensity was captured every second for the first 1 minute followed by every 5 seconds for an additional 4 minutes. This procedure was followed by 50 μl of 4× concentration of agonist and readings were taken for a period of 3-5 minutes as described above. Data was normalized to maximal responses and plotted as a function of concentration. The concentration dependence of changes fluorescence responses was fitted by nonlinear regression analysis (GraphPad Prism, San Diego, Calif.) to obtain EC50 values.
The positive allosteric modulator effects on α4β2nAChRs exemplified by 3-(3-pyridin-3-yl-1,2,4-oxadiazol-5-yl)benzonitrile (Compound 1) and 3,5-di(pyridin-3-yl)-1,2,4-oxadiazole (Compound 2) can be identified by measuring their potentiating effect to fluorescence changes in intracellular calcium using a fluorimetric plate reader. The potentiating effect of an α4β2 modulator on α4β2 receptor can also be illustrated by concentration responses to α4β2 agonists, for example 5-[(2R)-azetidin-2-ylmethoxy]-2-chloropyridine (Compound A) and (3R)-1-pyridin-3-ylpyrrolidin-3-amine (Compound B), in presence of a fixed concentration of PAM. […] In addition to compound A and B, other known nicotinic agonists can be left-shifted in presence of α4β2 PAM such as 3-(3-(pyridin-3-yl)-1,2,4-oxadiazol-5-yl)benzonitrile (Compound 1, FIG. 2C). […]
(In general: Calcium flux is commonly read through the fluorescence of an indicator in the cells.)

For assay [2], the system named is nerve injury induced mechanical allodynia. Nature of the assay: Chung model of neuropathic pain (L5-L6 spinal nerve ligation, tactile allodynia, von Frey). In kind it is in vivo, rat. As for the experimental part: To assess whether α4β2 PAM can increase antinociceptive responses of agonists in vivo, the following study was conducted. The materials and methods used to accomplish the study follow.
Male Sprague-Dawley rats (Charles River, Wilmington, Mass.) weighing 120-150 grams at time of surgery were utilized. These animals were group housed in AAALAC approved facilities at Abbott Laboratories in a temperature-regulated environment with lights on between 0700 and 2000 hours. Food and water was available ad libitum except during testing. All animal handling and experimental protocols were approved by an institutional animal care and use committee (IACUC). All experiments were performed during the light cycle.
5[(2R)-Azetidin-2-ylmethoxy]-2-chloropyridine (Compound A, 1-100 nmol/kg) and 3-(3-pyridin-3-yl)-1,2,4-oxadiazol-5-yl)benzonitrile (α4β2 PAM Compound 1, 1-35 μmol/kg, i.p.) was used. Compound A and D was prepared in saline and injected in solution in a volume of 2 ml/kg body weight 30 minutes before behavioral evaluation. Compound 1,3-(3-(pyridin-3-yl)-1,2,4-oxadiazol-5-yl)benzonitrile, was prepared in 30% hydroxybetacyclodextrin and injected in solution in a volume of 4 ml/kg body weight immediately before Compound A. For studies with Compound D, the doses tested ranged from 0.3-30 μmol/kg i.p.
To produce neuropathic pain, tight ligation of the L5-L6 spinal nerves was performed. As previously described in detail by Kim and Chung (Kim S H and Chung J M (1992), Pain 50: 355), following sterilization procedures, a 1.5 cm incision was made dorsal to the lumbosacral plexus. The paraspinal muscles (left side) were separated from the spinous processes, the L5 and L6 spinal nerves isolated, and tightly ligated with 3-0 silk thread. Following hemostasis, the wound was sutured and coated with antibiotic ointment. The rats were allowed to recover and then placed in a cage with soft bedding for 7-14 days before behavioral testing for mechanical allodynia.
Tactile allodynia was measured using calibrated (force; g) von Frey filaments (Stoelting, Wood Dale, Ill.). Briefly, rats were placed into individual plexiglass containers and allowed to acclimate for 15-20 minutes before testing. Withdrawal threshold was determined by increasing and decreasing stimulus intensity and estimated using a Dixon non-parametric test (Chaplan et al., 1994; Chaplan S R, Bach F W, Pogrel J W, Chung J M and Yaksh T L (1994) J Neurosci Methods 53:55-63). Only rats with threshold scores<4.5 g were considered allodynic and utilized in further testing. A percent of maximal possible effect (% M.P.E.) of the tested compounds was calculated according to the formula: ([post-drug threshold]-[baseline threshold])/([maximum threshold]-[baseline threshold])×100%, where maximum threshold was equal to 15 g.
Analysis of the in vivo data was carried out using analysis of variance. Where appropriate, Bonferroni's Multiple Comparison Test was used for post-hoc analysis. The level of significance was set at p less than 0.05. Data are presented as mean±S.E.M.

The target of assay [3] is α4β2 nAChR (UniProt P09483+P12390). Description: [^3H]-cytisine binding assay. From the text:
One manner for characterizing α4β2 receptor ligands is by a binding assay. […] The [^3H]-cytisine binding assays have been well reported; however, further details for carrying out the assays can be obtained in International Publication No. WO 99/32480; U.S. Pat. Nos. 5,948,793 and 5,914,328; WO 2004/018607; U.S. Pat. No. 6,809,105; WO 00/71534; and U.S. Pat. No. 6,833,370.

The target in assay [4] is T2, α4β2nAChR modulator site (Homo sapiens, UniProt P17787+P43681).
T2 construct: membrane enriched fractions from human cortex (ABS Inc., Wilmington, Del.); tissue ABS Inc., Wilmington, Del; host or cells: human cortex (frontal cortex) membrane enriched fractions
T2 sequence (P43681 29-627 limits assumed): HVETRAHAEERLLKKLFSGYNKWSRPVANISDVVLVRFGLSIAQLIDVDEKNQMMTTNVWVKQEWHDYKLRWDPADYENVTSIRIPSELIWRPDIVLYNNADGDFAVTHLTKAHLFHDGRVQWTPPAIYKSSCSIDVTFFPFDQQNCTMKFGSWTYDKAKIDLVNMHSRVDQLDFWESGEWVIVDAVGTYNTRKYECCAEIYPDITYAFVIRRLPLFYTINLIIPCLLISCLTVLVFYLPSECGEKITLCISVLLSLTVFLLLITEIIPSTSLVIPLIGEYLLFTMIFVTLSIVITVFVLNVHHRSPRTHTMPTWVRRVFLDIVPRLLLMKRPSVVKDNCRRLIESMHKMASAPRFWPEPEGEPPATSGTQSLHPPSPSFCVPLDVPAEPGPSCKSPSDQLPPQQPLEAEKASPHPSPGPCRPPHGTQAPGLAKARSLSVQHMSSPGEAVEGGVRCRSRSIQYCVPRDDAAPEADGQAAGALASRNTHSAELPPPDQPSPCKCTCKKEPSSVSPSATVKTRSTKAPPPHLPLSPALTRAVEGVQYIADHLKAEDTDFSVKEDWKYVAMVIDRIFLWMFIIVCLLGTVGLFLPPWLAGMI
T2 sequence (P17787 26-502): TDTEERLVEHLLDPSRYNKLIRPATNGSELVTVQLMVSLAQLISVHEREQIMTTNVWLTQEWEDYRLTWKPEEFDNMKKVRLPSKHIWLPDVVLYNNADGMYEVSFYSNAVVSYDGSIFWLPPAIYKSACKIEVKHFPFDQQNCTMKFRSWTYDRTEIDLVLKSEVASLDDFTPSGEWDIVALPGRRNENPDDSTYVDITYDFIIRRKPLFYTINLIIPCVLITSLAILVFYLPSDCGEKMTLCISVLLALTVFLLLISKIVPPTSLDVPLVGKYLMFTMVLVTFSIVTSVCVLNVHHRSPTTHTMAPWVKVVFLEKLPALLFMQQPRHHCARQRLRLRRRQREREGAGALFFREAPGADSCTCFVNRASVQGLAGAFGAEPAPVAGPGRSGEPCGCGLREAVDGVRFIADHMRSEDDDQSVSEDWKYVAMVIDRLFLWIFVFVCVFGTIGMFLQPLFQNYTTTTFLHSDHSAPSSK
Description: [^3H]-POB binding, membrane enriched fractions from human cortex. As to conditions: saturation binding, human frontal cortex membranes, 4° C. As to the method:
In addition to the assays previously described for assessing nicotinic acetylcholine receptor positive allosteric modulators (fluoroscence-based measurements, electrophysiology measurements using Xenopus oocytes or cell lines), the receptor interactions of positive allosteric modulators at α4β2 nAChRs also can be evaluated according to the [^3H]-POB binding assay, which was performed as described below.
[^3H]-POB ([^3H]-3-(5-(pyridin-3-yl)-1,2,4-oxadiazol-3-yl)benzonitrile) binding to a α4β2nAChR modulator site was determined using membrane enriched fractions from human cortex (ABS Inc., Wilmington, Del.). […] Non-specific binding was determined in the presence of 30 μM unlabeled 3-(5-(pyridin-3-yl)-1,2,4-oxadiazol-3-yl)benzonitrile. Under these conditions, saturable binding of [^3H]-POB binding was measured in membrane enriched fractions from human frontal cortex (FIG. 10). […]
For use in concentration-inhibition assays, seven log-dilution concentrations of test compounds containing […] of protein, and 50 nM [^3H]-POB (16.4 Ci/mmol) were incubated in a final volume of 500 μL for 75 minutes at 4° C. in duplicate. Non-specific binding was determined in the presence of 30 μM 3-(5-(pyridin-3-yl)-1,2,4-oxadiazol-3-yl)benzonitrile. […] IC50 values were determined by nonlinear regression in Microsoft® Excel or Assay Explorer. […]

[5] abbreviates: co-applied with the PAM Compound 1, α4β2 nAChRs.

For orientation: Ki means the dissociation constant of the complex between target and ligand, obtained from inhibition or displacement. Low values mean higher affinity, high ones lower affinity.

Where a name gives a salt, the structure may show the parent alone.

T1 sequence (P43681 29-627 limits assumed): as the sequence (P43681 29-627 limits assumed) above
T1 sequence (P17787 26-502): as the sequence (P17787 26-502) above

As for `Cc1ncccc1OC[C@@H]1CCCN1` [Compound C, 2-methyl-3-(2-(S)-pyrrolidinylmethoxy)pyridine], the calcium response entry was “evoked robust responses” in assay [1] (setting [5]) and “does not evoke a calcium response” in assay [1] (ligand alone, α4β2 nAChRs).
For the compound `c1ccc2ncc(N3C[C@@H]4CN[C@@H]4C3)cc2c1` [Compound D, (1S,5S)-3-(3,6-diaza-bicyclo[3.2.0]hept-3-yl)-quinoline], the “efficacy in neuropathic pain” value is on record as “ineffective in reversing neuropathic pain” in assay [2] (administered alone) and “significant efficacy can be realized” in assay [2] (combined with the PAM (Compound 1)). In assay [3], this compound registered a Ki of 6 nM. For the same compound, the calcium response result was “evoked robust responses” in assay [1] (setting [5]) and “does not evoke a response” in assay [1] (ligand alone, α4β2 nAChRs).
Consider `Fc1ccc(-c2nc(-c3cncnc3)no2)cc1F` [Example 101, 5-(3,4-difluorophenyl)-3-(pyrimidin-5-yl)-1,2,4-oxadiazole tosylate], for which the “Activity (allosteric effects-potentiation of fluorescence responses)” value in assay [1] is “a (“a” denotes as activity range from 200-400%)”.
Take `[3H]c1cncc(-c2nc(-c3cccc(C#N)c3)no2)c1` [[^3H]-POB, [^3H]-3-(5-(pyridin-3-yl)-1,2,4-oxadiazol-3-yl)benzonitrile]: the Bmax in assay [4] is 2900±500 fmol/mg protein.
